# Results reported in PubChem BioAssay AID330 (DTP/NCI, 2004).
# “And” between values parts separate entries of the source, which are not always exact repeats. Identical values can stand only once. Toxic doses and inconclusive results are not listed.
# Test system: P388 leukemia ip, CD2F1 mice, survival T/C
# Experiment: NCI In Vivo Anticancer Drug Screen. Data for tumor model P388 Leukemia (intraperitoneal) in CD2F1 (CDF1) mice
# Conditions: endpoint: median survival time, higher = longer survival
# In short: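 Mice carrying the transplanted tumor received test compound or vehicle. Survival was recorded in each group, and the value is the treated-group measurement divided by that of the vehicle-treated control group.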
# [1] = dose: 50.0 mg/kg/injection, schedule: Q01DX009 (ip), vehicle: Klucel (hydroxypropylcellulose) (HPC)
# [2] = dose: 100.0 mg/kg/injection, schedule: Q01DX009 (ip), vehicle: Klucel (hydroxypropylcellulose) (HPC)
smiles,measurement,setting,value
Cc1csc(C)[n+]1C,T/C,"dose: 25.0 mg/kg/injection, schedule: Q01DX009 (ip), vehicle: saline sonified",100 % of control
same,T/C,"dose: 50.0 mg/kg/injection, schedule: Q01DX009 (ip), vehicle: saline sonified",100 % of control
same,T/C,"dose: 100.0 mg/kg/injection, schedule: Q01DX009 (ip), vehicle: saline sonified",90 % of control
CC(=O)O[C@H]1C(=O)[C@@]2(C)[C@H]([C@H](OC(=O)c3ccccc3)[C@]3(O)C[C@H](OC(=O)[C@H](O)[C@@H](NC(=O)c4ccccc4)c4ccccc4)C(C)=C1C3(C)C)[C@]1(OC(C)=O)CO[C@@H]1C[C@@H]2O,T/C,"dose: 1.1 mg/kg/injection, schedule: Q01DX005 (ip), vehicle: other",118 % of control
same,T/C,"dose: 1.1 mg/kg/injection, schedule: Q01DX005 (iv), vehicle: other",98 % of control
same,T/C,"dose: 1.1 mg/kg/injection, schedule: Q01DX009 (oral), vehicle: other",106 % of control
same,T/C,"dose: 1.25 mg/kg/injection, schedule: Q01DX009 (ip), vehicle: Klucel (hydroxypropylcellulose) (HPC)",106 % of control
same,T/C,"dose: 1.25 mg/kg/injection, schedule: Q01DX009 (sc), vehicle: Klucel (hydroxypropylcellulose) (HPC)",106 % of control
same,T/C,"dose: 1.7 mg/kg/injection, schedule: Q01DX005 (ip), vehicle: other",115 % of control
same,T/C,"dose: 1.7 mg/kg/injection, schedule: Q01DX005 (iv), vehicle: other",106 % of control
same,T/C,"dose: 1.7 mg/kg/injection, schedule: Q03HX024 (ip), vehicle: other",160 % of control
same,T/C,"dose: 2.5 mg/kg/injection, schedule: Q01DX005 (ip), vehicle: Klucel (hydroxypropylcellulose) (HPC)",124 % of control
same,T/C,"dose: 2.5 mg/kg/injection, schedule: Q01DX009 (ip), vehicle: Klucel (hydroxypropylcellulose) (HPC)",112 % of control
same,T/C,"dose: 2.5 mg/kg/injection, schedule: Q01DX009 (oral), vehicle: Klucel (hydroxypropylcellulose) (HPC)",100 % of control
same,T/C,"dose: 2.5 mg/kg/injection, schedule: Q01DX009 (sc), vehicle: Klucel (hydroxypropylcellulose) (HPC)",99 % of control
same,T/C,"dose: 2.6 mg/kg/injection, schedule: Q01DX001 (ip), vehicle: other",106 % of control
same,T/C,"dose: 2.6 mg/kg/injection, schedule: Q01DX001 (iv), vehicle: other",94 % of control
same,T/C,"dose: 2.6 mg/kg/injection, schedule: Q01DX005 (ip), vehicle: other",115 % of control
same,T/C,"dose: 2.6 mg/kg/injection, schedule: Q01DX005 (iv), vehicle: other",97 % of control
same,T/C,"dose: 2.6 mg/kg/injection, schedule: Q03HX024 (ip), vehicle: other",153 % of control
same,T/C,"dose: 2.6 mg/kg/injection, schedule: Q04DX003 (iv), vehicle: other",87 % of control
same,T/C,"dose: 3.6 mg/kg/injection, schedule: Q01DX005 (ip), vehicle: Klucel (hydroxypropylcellulose) (HPC)",161 % of control
same,T/C,"dose: 4.0 mg/kg/injection, schedule: Q01DX001 (iv), vehicle: other",95 % of control
same,T/C,"dose: 4.0 mg/kg/injection, schedule: Q01DX005 (ip), vehicle: other",120 % of control
same,T/C,"dose: 4.0 mg/kg/injection, schedule: Q01DX009 (oral), vehicle: other",96 % of control
same,T/C,"dose: 4.0 mg/kg/injection, schedule: Q03HX008 (ip), vehicle: other",156 % of control
same,T/C,"dose: 4.0 mg/kg/injection, schedule: Q04DX003 (ip), vehicle: other",120 % of control
same,T/C,"dose: 4.0 mg/kg/injection, schedule: Q04DX003 (iv), vehicle: other",87 % of control
same,T/C,"dose: 5.0 mg/kg/injection, schedule: Q01DX009 (ip), vehicle: Klucel (hydroxypropylcellulose) (HPC)",116 % of control
same,T/C,"dose: 5.0 mg/kg/injection, schedule: Q01DX009 (oral), vehicle: Klucel (hydroxypropylcellulose) (HPC)",99 % of control
same,T/C,"dose: 5.0 mg/kg/injection, schedule: Q01DX009 (sc), vehicle: Klucel (hydroxypropylcellulose) (HPC)",98 % of control
same,T/C,"dose: 6.0 mg/kg/injection, schedule: Q01DX001 (ip), vehicle: other",106 % of control
same,T/C,"dose: 6.0 mg/kg/injection, schedule: Q01DX005 (iv), vehicle: other",112 % of control
same,T/C,"dose: 6.0 mg/kg/injection, schedule: Q01DX009 (oral), vehicle: other",99 % of control
same,T/C,"dose: 6.0 mg/kg/injection, schedule: Q03HX008 (ip), vehicle: other",178 % of control
same,T/C,"dose: 6.0 mg/kg/injection, schedule: Q04DX003 (iv), vehicle: other",89 % of control
same,T/C,"dose: 9.0 mg/kg/injection, schedule: Q01DX001 (ip), vehicle: other",115 % of control
same,T/C,"dose: 9.0 mg/kg/injection, schedule: Q01DX001 (iv), vehicle: other",106 % of control
same,T/C,"dose: 9.0 mg/kg/injection, schedule: Q01DX005 (iv), vehicle: other",118 % of control
same,T/C,"dose: 9.0 mg/kg/injection, schedule: Q01DX009 (oral), vehicle: other",97 % of control
same,T/C,"dose: 10.0 mg/kg/injection, schedule: Q01DX009 (ip), vehicle: Klucel (hydroxypropylcellulose) (HPC)",100 % of control and 106 % of control
same,T/C,"dose: 10.0 mg/kg/injection, schedule: Q01DX009 (oral), vehicle: Klucel (hydroxypropylcellulose) (HPC)",99 % of control
same,T/C,"dose: 10.0 mg/kg/injection, schedule: Q01DX009 (sc), vehicle: Klucel (hydroxypropylcellulose) (HPC)",96 % of control
same,T/C,"dose: 12.5 mg/kg/injection, schedule: Q04DX003 (ip), vehicle: Klucel (hydroxypropylcellulose) (HPC)",150 % of control and 160 % of control
same,T/C,"dose: 16.7 mg/kg/injection, schedule: Q01DX005 (ip), vehicle: Klucel (hydroxypropylcellulose) (HPC)",96 % of control
same,T/C,"dose: 20.0 mg/kg/injection, schedule: Q01DX009 (ip), vehicle: Klucel (hydroxypropylcellulose) (HPC)",88 % of control
same,T/C,"dose: 20.0 mg/kg/injection, schedule: Q01DX009 (oral), vehicle: Klucel (hydroxypropylcellulose) (HPC)",98 % of control
same,T/C,"dose: 20.0 mg/kg/injection, schedule: Q01DX009 (sc), vehicle: Klucel (hydroxypropylcellulose) (HPC)",97 % of control
same,T/C,"dose: 21.6 mg/kg/injection, schedule: Q04DX003 (ip), vehicle: Klucel (hydroxypropylcellulose) (HPC)",157 % of control
same,T/C,"dose: 25.0 mg/kg/injection, schedule: Q04DX003 (ip), vehicle: Klucel (hydroxypropylcellulose) (HPC)",151 % of control and 155 % of control
same,T/C,"dose: 40.0 mg/kg/injection, schedule: Q01DX009 (oral), vehicle: Klucel (hydroxypropylcellulose) (HPC)",104 % of control
same,T/C,"dose: 50.0 mg/kg/injection, schedule: Q04DX003 (ip), vehicle: Klucel (hydroxypropylcellulose) (HPC)",124 % of control
same,T/C,"dose: 60.0 mg/kg/injection, schedule: Q04DX003 (ip), vehicle: Klucel (hydroxypropylcellulose) (HPC)",107 % of control
same,T/C,"dose: 80.0 mg/kg/injection, schedule: Q01DX009 (oral), vehicle: Klucel (hydroxypropylcellulose) (HPC)",98 % of control
same,T/C,"dose: 160.0 mg/kg/injection, schedule: Q01DX009 (oral), vehicle: Klucel (hydroxypropylcellulose) (HPC)",99 % of control
O=C(CCl)N1c2ccccc2Sc2ccccc21,T/C,"dose: 12.5 mg/kg/injection, schedule: Q01DX009 (ip), vehicle: water",105 % of control
same,T/C,"dose: 25.0 mg/kg/injection, schedule: Q01DX009 (ip), vehicle: water",100 % of control
same,T/C,"dose: 50.0 mg/kg/injection, schedule: Q01DX009 (ip), vehicle: water",107 % of control
same,T/C,"dose: 100.0 mg/kg/injection, schedule: Q01DX009 (ip), vehicle: water",111 % of control
same,T/C,"dose: 200.0 mg/kg/injection, schedule: Q01DX009 (ip), vehicle: water",114 % of control
CCOC(=O)Nc1cc(NC/C(=N/O)c2ccc(Cl)cc2)c([N+](=O)[O-])c(N)n1,T/C,"dose: 50.0 mg/kg/injection, schedule: Q01DX001 (ip), vehicle: Klucel (hydroxypropylcellulose) (HPC)",90 % of control
same,T/C,"dose: 100.0 mg/kg/injection, schedule: Q01DX001 (ip), vehicle: Klucel (hydroxypropylcellulose) (HPC)",87 % of control
O=c1c2cc3ccccc3cc2c(=O)n2n1CC=CC2,T/C,[1],97 % of control
same,T/C,[2],90 % of control
Nc1ccc([N+](=O)[O-])cc1Nc1c2ccccc2nc2ccccc12,T/C,[1],108 % of control
same,T/C,[2],107 % of control
Cc1ccc(S(=O)(=O)[n+]2ccccc2)cc1,T/C,"dose: 100.0 mg/kg/injection, schedule: Q01DX001 (ip), vehicle: saline",104 % of control
same,T/C,"dose: 200.0 mg/kg/injection, schedule: Q01DX001 (ip), vehicle: saline",100 % of control
same,T/C,"dose: 400.0 mg/kg/injection, schedule: Q01DX001 (ip), vehicle: saline",100 % of control
S=C(NCc1cccnc1)Nc1ccc(Cl)c(Cl)c1,T/C,[1],104 % of control
same,T/C,[2],108 % of control
same,T/C,"dose: 200.0 mg/kg/injection, schedule: Q01DX009 (ip), vehicle: Klucel (hydroxypropylcellulose) (HPC)",104 % of control
CN(C)CCCN1c2ccccc2C2CC2c2ccccc21 (configuration not stated),T/C,"dose: 5.0 mg/kg/injection, schedule: Q01DX009 (ip), vehicle: saline with Tween-80",100 % of control
same,T/C,"dose: 100.0 mg/kg/injection, schedule: Q01DX009 (ip), vehicle: saline with Tween-80",98 % of control
O=C(O)c1cc(-c2ccccc2)[nH]c1-c1ccccc1,T/C,"dose: 12.5 mg/kg/injection, schedule: Q01DX009 (ip), vehicle: saline with Tween-80",103 % of control
same,T/C,"dose: 25.0 mg/kg/injection, schedule: Q01DX009 (ip), vehicle: saline with Tween-80",106 % of control
same,T/C,"dose: 50.0 mg/kg/injection, schedule: Q01DX009 (ip), vehicle: saline with Tween-80",90 % of control
